Measured values: patent publication US20240237690A1, “Licorice Compounds and Their Use as Flavor Modifiers” (Firmenich SA, priority 2021, published 2024)

Experiments:
Type in all cases: in vivo, human
[1] = system: bitter taste of 10 ppm mixture of Limonin, Naringin, and Normilin; experiment: Sensory testing by trained taste panel: bitter taste, citrus bitter mixture; conditions: mean of 20 trained panelists, scale −5 to 5, compound at 10 or 40 ppm, ED at 40 ppm, 0 = reference 10 ppm mixture of Limonin
From the text: (§1) A panel consisted in 20 trained taste panelists evaluated samples of each of Compounds 101-106 at 10 or 40 ppm for taste properties (sweet, licorice, lingering, bitter or astringent) on a scale of −5 to 5 (−5 to −4 denoted strong masking effect, −4 to −3 denoted moderate masking effect, −3 to −2 denoted masking effect, −2 to 0 denoted weak masking effect, while 5 to 4 denoted strong enhancing effect, 4 to 3 denoted moderate enhancing effect, 3 to 2 denoted enhancing effect, 2 to 0 denoted weak enhancing effect, 0 being equal to the intensity of a reference water solution containing 4% sucrose or 0.02% SG95 (>95% steviol glycosides) or 10 ppm mixture of Limonin, Naringin, and Normilin (for bitter and astringent). Note that ED and HED refers to eriodictyol or homoeriodictyol, respectively, at a concentration of 40 ppm.

[2] = system: sweet taste of water solution containing 4% sucrose; experiment: Sensory testing by trained taste panel: sweet taste, sucrose reference; conditions: mean of 20 trained panelists, scale −5 to 5; compound at 10 or 40 ppm; 0 = reference water solution containing 4% sucrose
From the text: as §1

[3] = system: lingering taste of 0.02% SG95 (>95% steviol glycosides); experiment: Sensory testing by trained taste panel: lingering, SG95 reference; conditions: mean of 20 trained panelists, scale −5 to 5; compound at 10 or 40 ppm; 0 = reference 0.02% SG95
From the text: as §1

[4] = system: astringent taste of 10 ppm mixture of Limonin, Naringin, and Normilin; experiment: Sensory testing by trained taste panel: astringent taste, citrus bitter mixture; conditions: mean of 20 trained panelists, scale −5 to 5, compound at 10 or 40 ppm, ED at 40 ppm, 0 = reference 10 ppm mixture of Limonin
From the text: as §1

SMILES	Bitter (Limonin, Naringin, and Normilin) [1]	Sweet (sucrose) [2]	Lingering (SG95) [3]	Astringent (Limonin, Naringin, and Normilin) [4]
O=C1C[C@@H](c2ccc(O[C@@H]3O[C@H](CO)[C@@H](O)[C@H](O)[C@H]3O)cc2)Oc2cc(O)ccc21 [Compound 101, liquiritin]	Mask (−3 to −2 denoted masking effect)	Enhance (3 to 2 denoted enhancing effect)		
O=C1C[C@@H](c2ccc(O)cc2)Oc2cc(O)ccc21 [Compound 102, liquiritigenin]	Mask (−3 to −2 denoted masking effect)		Mask (−3 to −2 denoted masking effect)	Mask (−3 to −2 denoted masking effect)
O=C(/C=C/c1ccc(O)cc1)c1ccc(O)cc1O [Compound 104, isoliquiritigenin]		Enhance (3 to 2 denoted enhancing effect)		
O=C1C[C@@H](c2ccc(O)c(O)c2)Oc2cc(O)cc(O)c21 [ED, eriodictyol, reference compound]	Mask (−3 to −2 denoted masking effect)			
